This is an account of results in US5015659A, “Thienylacetic acid derivatives, process for the preparation thereof, the use thereof, and pharmaceuticals containing these and the preparation thereof” (Cassella Aktiengesellschaft, priority 1989, dated 1991).

The structures appear in SMILES notation. pKd: −log10 of the molar value. Where a name gives a salt, the structure may show the parent alone.

In assay [1] the test system is Ischaemia-induced amnesia in the Mongolian gerbil. Nature of the assay: Ischaemia-induced amnesia, passive-avoidance learning after brief bilateral cerebral ischaemia. The assay is classed as in vivo. The conditions noted are these: for Ischaemia-induced learning impairment, % reversal of learning impairment: immediately after the end of ischaemia; for ED50: Meriones unguiculatus, ip, i.p. immediately after the end of ischaemia (3-5 min), read-out: Dose which elicits a half-maximum (about 50%) antagonism of the learning impairment. On the procedure:
Brief bilateral cerebral ischaemia (3-5 min) in the gerbil leads to a prolonged learning impairment in passive-avoidance learning. The learning impairment can be antagonized if the animals are treated intraperitoneally with the compounds of the general formula I immediately after the end of ischaemia. The table which follows indicates the dosages which elicit a half-maximum (about 50%) antagonism of the learning impairment. The compounds according to the invention show a pronounced superiority to the compounds of the state of the art.

Assay [2] has as its system Scopolamine-induced amnesia in the mouse. Nature of the assay: Scopolamine-induced amnesia, passive-avoidance learning test. The assay is classed as in vivo. To be noted: scopolamine 3 mg/kg i.p.; for Scopolamine amnesia, % reversal of amnesia: 30 mg/kg oral pretreatment. The method, then:
1) Scopolamine-induced amnesia in the mouse
Injection of a scopolamine dose of 3 mg/kg i.p. leads to an amnesia in a passive-avoidance learning test.

The target of a further assay is glycine receptor. The assay is described as follows: Receptor-binding studies in vitro, rat cortex synaptosomes. The conditions noted are these: for pKd: read-out: Binding to glycine receptors in the brain, Kd.

Turning to `NC(=O)CN1CC(O)CC1=O` (stereo not shown) [Oxiracetam, reference compound], in assay [1] (100.00 mg/kg ip), the “Ischaemia-induced learning impairment, % reversal of learning impairment” value is listed as 46%. In assay [1], the ED50 came to 100 mg/kg.
Take `COc1ccc(C(=O)N2CCCC2=O)cc1` [Aniracetam, reference compound]: the “Ischaemia-induced learning impairment, % reversal of learning impairment” value in assay [1] (30.00 mg/kg ip) is listed as 45%. The ED50 in assay [1] amounted to 30 mg/kg.
On to `NC(=O)C(NCC(=O)O)c1cccs1` (stereo not shown) [Example 8, 2-Thienyl-N-hydroxycarbonylmethylaminoacetamide hydrochloride], for which the “Scopolamine amnesia, % reversal of amnesia” value in assay [2] is given as 71%. Further, the “Ischaemia-induced learning impairment, % reversal of learning impairment” value in assay [1] (0.03 mg/kg ip) was determined as 58%. The ED50 in assay [1] amounted to 0.03 mg/kg.
Take `NC(=O)CNC(C(=O)O)c1cccs1` (stereo not shown) [Example 5, 2-Thienyl-N-aminocarbonylmethylaminoacetic acid]: the “Scopolamine amnesia, % reversal of amnesia” value in assay [2] is on record as 56%. In addition, the “Ischaemia-induced learning impairment, % reversal of learning impairment” value in assay [1] (1.00 mg/kg ip) is on record as 51%. In addition, the ED50 in assay [1] turned out to be 1 mg/kg.
For `NC(C(=O)NCC(=O)O)c1cccs1` (stereo not shown) [Example 11, N-(2-Thienylaminoacetyl)glycine], the “Ischaemia-induced learning impairment, % reversal of learning impairment” value in assay [1] (1.00 mg/kg ip) amounted to 54%. Further, the ED50 in assay [1] came to 1 mg/kg. On glycine receptor, the pKd is 5.74.
Turning to `Cl.NCC(=O)NC(C(=O)O)c1cccs1` (stereo not shown) [Example 9, 2-Thienyl-N-aminoacetylaminoacetic acid hydrochloride], the “Ischaemia-induced learning impairment, % reversal of learning impairment” value in assay [1] (0.10 mg/kg ip) worked out at 54%. The ED50 in assay [1] was determined as 0.1 mg/kg. Besides, the pKd at glycine receptor is 5.74.
Regarding `NC(=O)CN1CCCC1=O` [Piracetam, reference compound], in assay [2], the “Scopolamine amnesia, % reversal of amnesia” value was 18%. Further, in assay [2] (oral pretreatment), the “antagonism of scopolamine-induced amnesia (in words)” value is given as “only marginal activity”. In the assay with glycine receptor, the “Binding to glycine receptors in the brain (in words)” value is reported as “No specific binding”.

One may read the pKd as −log10 of the Kd, conventionally taken in molar units.
